Our source for the inhibition and IC50 values is ChEMBL document CHEMBL4038320 (J Med Chem, 2017).

Bounds are passed on as bounds.

One data set deals with CYP3A4 (Homo sapiens, UniProt P08684). Description: Inhibition of CYP3A4 (unknown origin) at 10 uM. Type of data set: ADME.
Data set [1] deals with Rho-associated protein kinase 2 (Homo sapiens, UniProt O75116). Description: Inhibition of recombinant human N-terminal GST-tagged ROCK2 catalytic domain (1 to 553 residues) expressed in baculovirus expression system using STK 2-biotin as substrate measured after 60 mins by HTRF/TR-FRET assay. On the technique in general: Time-resolved FRET reads energy transfer from a long-lived donor to a nearby acceptor.

Data set [2] has as its target Protein kinase C alpha type (Homo sapiens, UniProt P17252). Description: Inhibition of human PKCalpha active using MBP as substrate after 60 mins in presence of [gamma-32]ATP by scintillation counting.

Chain of CYP3A4 (P08684 whole entry, the tested form may be a part): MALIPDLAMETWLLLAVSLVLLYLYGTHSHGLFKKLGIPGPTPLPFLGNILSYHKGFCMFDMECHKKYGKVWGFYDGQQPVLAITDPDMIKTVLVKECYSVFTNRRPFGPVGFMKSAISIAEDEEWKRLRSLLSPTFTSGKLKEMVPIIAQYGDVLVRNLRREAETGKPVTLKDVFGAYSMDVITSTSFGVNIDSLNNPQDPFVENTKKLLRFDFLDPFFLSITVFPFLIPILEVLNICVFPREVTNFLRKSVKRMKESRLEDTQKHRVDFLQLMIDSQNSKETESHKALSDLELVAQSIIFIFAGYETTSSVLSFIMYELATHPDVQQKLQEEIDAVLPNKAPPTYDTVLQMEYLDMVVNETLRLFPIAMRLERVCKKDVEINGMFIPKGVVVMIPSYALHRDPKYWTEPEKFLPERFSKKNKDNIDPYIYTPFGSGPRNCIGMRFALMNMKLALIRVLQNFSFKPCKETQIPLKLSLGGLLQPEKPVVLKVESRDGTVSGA
Chain of Rho-associated protein kinase 2 (O75116 whole entry, the tested form may be a part): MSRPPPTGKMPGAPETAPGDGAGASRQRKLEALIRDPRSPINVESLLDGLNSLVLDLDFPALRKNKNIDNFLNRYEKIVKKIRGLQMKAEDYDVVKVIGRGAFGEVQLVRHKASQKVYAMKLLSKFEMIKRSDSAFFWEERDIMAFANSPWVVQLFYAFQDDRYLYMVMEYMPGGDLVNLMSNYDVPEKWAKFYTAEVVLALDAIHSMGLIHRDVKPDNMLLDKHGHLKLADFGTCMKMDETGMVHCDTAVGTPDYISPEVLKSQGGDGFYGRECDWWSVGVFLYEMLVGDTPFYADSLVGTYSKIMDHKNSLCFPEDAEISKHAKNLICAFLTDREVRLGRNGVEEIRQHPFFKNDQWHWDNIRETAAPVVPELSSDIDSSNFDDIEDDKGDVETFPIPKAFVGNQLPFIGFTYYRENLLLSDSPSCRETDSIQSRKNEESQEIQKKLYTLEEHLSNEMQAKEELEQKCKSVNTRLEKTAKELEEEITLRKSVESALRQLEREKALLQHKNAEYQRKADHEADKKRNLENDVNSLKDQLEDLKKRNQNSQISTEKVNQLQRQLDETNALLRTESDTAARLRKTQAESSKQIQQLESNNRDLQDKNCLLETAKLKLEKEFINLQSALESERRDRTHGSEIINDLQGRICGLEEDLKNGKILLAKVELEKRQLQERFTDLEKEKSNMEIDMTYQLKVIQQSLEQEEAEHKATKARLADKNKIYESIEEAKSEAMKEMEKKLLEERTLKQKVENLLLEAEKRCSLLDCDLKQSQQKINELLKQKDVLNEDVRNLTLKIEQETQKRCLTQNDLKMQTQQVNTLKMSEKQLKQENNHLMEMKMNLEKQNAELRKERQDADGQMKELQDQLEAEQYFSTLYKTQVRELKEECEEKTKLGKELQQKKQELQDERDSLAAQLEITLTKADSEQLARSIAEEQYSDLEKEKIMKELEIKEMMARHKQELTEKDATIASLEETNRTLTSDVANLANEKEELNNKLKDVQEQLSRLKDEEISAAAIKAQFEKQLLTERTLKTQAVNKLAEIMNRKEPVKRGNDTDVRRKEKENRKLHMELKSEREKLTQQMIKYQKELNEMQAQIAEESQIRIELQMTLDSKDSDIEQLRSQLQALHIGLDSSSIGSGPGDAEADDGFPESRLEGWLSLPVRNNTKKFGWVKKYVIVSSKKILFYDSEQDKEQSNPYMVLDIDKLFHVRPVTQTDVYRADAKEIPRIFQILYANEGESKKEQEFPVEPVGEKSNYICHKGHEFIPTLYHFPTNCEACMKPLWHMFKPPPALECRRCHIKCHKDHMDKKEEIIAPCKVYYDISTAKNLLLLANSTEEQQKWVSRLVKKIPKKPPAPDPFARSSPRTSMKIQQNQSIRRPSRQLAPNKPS

Regarding `Clc1cccc(OCc2n[nH]c(-c3ccncc3)n2)c1`, at CYP3A4, the inhibition (as a rule, the change of the read-out against control, counted positive when it falls) at 10 µM amounted to 86%. Besides, the IC50 (usually the concentration needed to halve the response being measured) in data set [1] amounted to 1.7 µM.
In the case of `O=C(CNc1ccccc1)N/N=C/c1ccncc1`, the IC50 in data set [1] came to 0.64 µM.
With `O=C(CNc1cccc(Cl)c1)N/N=C/c1ccncc1`, the IC50 in data set [1] amounted to 0.3 µM.
Still for that read-out and setting: to `COc1cccc(NCC(=O)N/N=C/c2ccncc2)c1` belongs 0.062 µM; to `COc1ccccc1NCC(=O)N/N=C/c1ccncc1`, 7.4 µM; to `O=C(CNc1ccc(Cl)cc1)N/N=C/c1ccncc1`, 0.54 µM.
Turning to `Cn1c(CNc2cccc(C(=O)NCc3c(F)cccc3F)c2)nnc1-c1ccnc(NCCc2ccccc2)c1`, on CYP3A4, the inhibition at 10 µM is 69%. The IC50 in data set [1] was > 10 µM.
At CYP3A4, `Clc1ccccc1NCc1nc(-c2ccncc2)n[nH]1` returned an inhibition at 10 µM of 100%. The IC50 in data set [1] is 1.7 µM; in data set [2], > 10 µM.
On CYP3A4, `Clc1ccc(NCc2nc(-c3ccncc3)n[nH]2)cc1` gave an inhibition at 10 µM of 97%. For the same molecule, the IC50 is 0.094 µM in data set [1] and > 10 µM in data set [2].
For `Cc1cnccc1-c1n[nH]c(CNc2cccc(C(=O)NCc3ccccc3)c2)n1`, testing at 10 µM against CYP3A4 gave an inhibition of 88%. Besides, the IC50 in data set [1] is 0.094 µM; in data set [2], > 10 µM.
On the same counts, the results for `COc1cccc(NCc2nc(-c3ccncc3)n[nH]2)c1` are 92%, 0.72 µM and > 10 µM.
As for `CCOc1cccc(NCC(=O)N/N=C2\CCCc3cnccc32)c1`, the IC50 in data set [1] is 5.7 µM; in data set [2], > 10 µM.
For `Clc1ccc(NCCc2nc(-c3ccncc3)n[nH]2)cc1`, the inhibition at 10 µM at CYP3A4 turned out to be 93%. For the same molecule, the IC50 in data set [1] amounted to 0.9 µM.
Consider `CN(Cc1ccccc1)C(=O)c1cccc(NCc2nc(-c3ccncc3)n[nH]2)c1`, for which the inhibition at 10 µM at CYP3A4 amounted to 79%. The 50% inhibitory concentration (IC50) is 2.2 µM in data set [1] and > 10 µM in data set [2].
For the molecule `c1ccc(CSc2cccc(NCc3nc(-c4ccncc4)n[nH]3)c2)cc1`, the inhibition at 10 µM at CYP3A4 was found to be 100%. Besides, the IC50 is 1.2 µM in data set [1] and > 10 µM in data set [2].
On the same counts, the results for `c1ccc(CCOc2cccc(NCc3nc(-c4ccncc4)n[nH]3)c2)cc1` are 96%, 2.7 µM and > 10 µM.
Molecule `CNc1cc(-c2nnc(CNc3cccc(C(=O)NCc4c(F)cccc4F)c3)n2C)ccn1` registered an inhibition at 10 µM on CYP3A4 of 29%. The IC50 in data set [1] stood at 7.4 µM.
Turning to `O=C(NCc1ccccc1)c1cccc(NCc2nc(-c3ccncc3)c[nH]2)c1`, on CYP3A4, the inhibition at 10 µM worked out at 100%. Also, the IC50 was 0.0073 µM in data set [1] and 3.6 µM in data set [2].
Consider `CC(=O)Nc1cc(-c2nnc(CNc3cccc(C(=O)NCc4ccccc4C(F)(F)F)c3)n2C)ccn1`, for which 10 µM produced 56% inhibition on CYP3A4. Besides, the IC50 in data set [1] is > 10 µM.
On the same counts, the results for `Clc1ccc(CNc2nc(-c3ccncc3)n[nH]2)cc1` are 96% and 0.27 µM.
Regarding `O=C(CNc1cccc(OCc2ccccc2)c1)N/N=C1\CCCc2cnccc21`, the concentration for half-maximal inhibition (IC50) in data set [1] and in data set [2] was > 10 µM in each case.
Take `CC(=O)Nc1cc(NCc2nc(-c3ccncc3)n[nH]2)ccc1Cl`: on CYP3A4, the inhibition at 10 µM was determined as 80%. Besides, the half-inhibitory concentration (IC50) in data set [1] came to 0.074 µM; in data set [2] it was 8.3 µM.
Consider `NS(=O)(=O)c1cccc(NCc2nc(-c3ccncc3)n[nH]2)c1`, for which, at CYP3A4, the inhibition at 10 µM stood at 25%. In addition, the IC50 is 0.16 µM in data set [1] and > 10 µM in data set [2].
`O=C(NCc1c(F)cccc1F)c1cccc(NCc2nnc3n2CCOc2cnccc2-3)c1` registered an inhibition at 10 µM at CYP3A4 of 49%. In addition, the IC50 in data set [1] was 0.19 µM.
Consider `c1ccc(Oc2cccc(NCc3nc(-c4ccncc4)n[nH]3)c2)cc1`, for which the inhibition at 10 µM against CYP3A4 is 100%. The IC50 in data set [1] and in data set [2] was > 10 µM in each case.
In the case of `O=C(NCCCc1ccccc1)c1cccc(NCc2nc(-c3ccncc3)n[nH]2)c1`, at CYP3A4, the inhibition at 10 µM turned out to be 94%. The IC50 in data set [1] was 0.1 µM; in data set [2] it was > 10 µM.
In turn, `O=S(=O)(Cc1ccccc1)c1cccc(NCc2nc(-c3ccncc3)n[nH]2)c1` came in with an inhibition at 10 µM against CYP3A4 of 86%. Further, the IC50 in data set [1] came out at 1.1 µM.
As for `O=C(Nc1ccccc1)c1cccc(NCc2nc(-c3ccncc3)n[nH]2)c1`, at CYP3A4, the inhibition at 10 µM amounted to 94%. The figures for the IC50 in data set [1] and in data set [2] were 0.031 µM and 0.68 µM, respectively.
On the same counts, the results for `COc1ccccc1NCc1nc(-c2ccncc2)n[nH]1` are 93%, 1.8 µM and > 10 µM.
As to `O=C(NCc1ccccc1)c1cccc(NCc2ccn(-c3ccncc3)c2)c1`, testing at 10 µM against CYP3A4 gave an inhibition of 95%. Moreover, the IC50 in data set [1] stood at 0.34 µM.
On the same counts, the results for `OCCc1cnccc1-c1n[nH]c(CNc2ccc(Cl)cc2)n1` are 100% and > 10 µM.
On the same counts, the results for `O=C(NCc1ccccc1)c1cccc(NCc2c[nH]c(-c3ccncc3)n2)c1` are 93% and 0.16 µM.
`COc1cccc(NCC(=O)N/N=C2\CCCc3cnccc32)c1`: the IC50 in data set [1] is 0.39 µM; in data set [2], > 10 µM.
On to `O=C(CNc1cccc(C(=O)NCc2ccccc2)c1)N/N=C1\CCCc2cnccc21`, for which the values for the IC50 in data set [1] and in data set [2] were 0.058 µM and > 10 µM, respectively.
Consider `COc1ccc(NCc2nc(-c3ccncc3)n[nH]2)cc1`, for which the inhibition at 10 µM against CYP3A4 turned out to be 95%. The IC50 in data set [1] was 0.28 µM; in data set [2], > 10 µM.
As to `O=C(NCc1ccccc1)Nc1cccc(NCc2nc(-c3ccncc3)n[nH]2)c1`, at CYP3A4, 10 µM produced 92% inhibition. Moreover, the half-inhibitory concentration (IC50) is 0.03 µM in data set [1] and 2.7 µM in data set [2].
`c1ccc(CNCc2nc(-c3ccncc3)n[nH]2)cc1` registered an inhibition at 10 µM against CYP3A4 of 74%. Moreover, the IC50 in data set [1] was 5.1 µM.
Regarding `O=C(CNc1cccc(Oc2ccccc2)c1)N/N=C1\CCCc2cnccc21`, the IC50 was 6.2 µM in data set [1] and > 10 µM in data set [2].
As for `CC(=O)Nc1cccc(NCc2nc(-c3ccncc3)n[nH]2)c1`, the inhibition at 10 µM against CYP3A4 was 77%. The IC50 in data set [1] stood at 0.07 µM.
With `O=C(NCc1ccccc1)c1cccc(NCc2cc(-c3ccncc3)n[nH]2)c1`, the inhibition at 10 µM at CYP3A4 is 99%. The IC50 is 0.06 µM in data set [1] and 7.2 µM in data set [2].
On the same counts, the results for `Cn1c(CNc2cccc(C(=O)NCc3c(F)cccc3F)c2)nnc1-c1ccnc(NCCCc2ccccc2)c1` are 64%, > 10 µM and 2.5 µM.
In turn, `O=C(NCc1ccccc1)c1cccc(NCc2cc(-c3ccncc3)on2)c1` registered an inhibition at 10 µM against CYP3A4 of 84%. Further, the values for the IC50 in data set [1] and in data set [2] were 0.018 µM and 2.5 µM, respectively.
In turn, `NC(=O)OCc1cnccc1-c1n[nH]c(CNc2cccc(C(=O)NCc3ccccc3)c2)n1` yielded an inhibition at 10 µM against CYP3A4 of 63%. In data set [1], the IC50 turned out to be 2.3 µM.
As for `Cc1cc(-c2n[nH]c(CNc3ccc(Cl)cc3)n2)ccn1`, at CYP3A4, testing at 10 µM gave an inhibition of 47%. The figures for the IC50 in data set [1] and in data set [2] were 7.1 µM and > 10 µM, respectively.
In the same order, the values of `c1ccc(NCc2nc(-c3ccncc3)n[nH]2)cc1` are 94%, 0.63 µM and > 10 µM.
With `O=S(=O)(NCc1ccccc1)c1cccc(NCc2nc(-c3ccncc3)n[nH]2)c1`, on CYP3A4, at 10 µM the inhibition was 83%. Also, in data set [1], the IC50 was 0.098 µM.
Molecule `O=C(NCc1ccccc1)c1cccc(NCc2nnc(-c3ccncc3)n2Cc2ccccc2)c1` yielded an inhibition at 10 µM on CYP3A4 of 87%. Moreover, the 50% inhibitory concentration (IC50) in data set [1] turned out to be 3.2 µM.
In the case of `O=C(CNc1cccc(C(=O)N2CCOCC2)c1)N/N=C1\CCCc2cnccc21`, the IC50 in data set [1] was > 10 µM.
On CYP3A4, `O=C(Cc1ccccc1)Nc1cc(NCc2nc(-c3ccncc3)n[nH]2)ccc1Cl` had an inhibition at 10 µM of 90%. Further, the IC50 in data set [1] was 0.018 µM; in data set [2], 1.7 µM.
With `c1ccc(COc2cccc(NCc3nc(-c4ccncc4)n[nH]3)c2)cc1`, the inhibition at 10 µM at CYP3A4 stood at 97%. The IC50 in data set [1] is 1.4 µM; in data set [2], > 10 µM.
The molecule `Clc1cccc(NCc2nc(-c3ccncc3)n[nH]2)c1` returned an inhibition at 10 µM on CYP3A4 of 93%. In addition, the IC50 in data set [1] was 0.38 µM; in data set [2], > 10 µM.
With `Cn1c(CNc2cccc(C(=O)NCc3c(F)cccc3F)c2)nnc1-c1ccnc(NCc2ccccc2)c1`, 10 µM produced 47% inhibition against CYP3A4. Further, the half-inhibitory concentration (IC50) in data set [1] and in data set [2] was > 10 µM each time.
Consider `O=C(NCc1ccccc1)c1cccc(NCc2nc(-c3ccncc3CO)n[nH]2)c1`, for which the inhibition at 10 µM on CYP3A4 turned out to be 100%. Besides, the IC50 in data set [1] was 0.54 µM; in data set [2] it was > 10 µM.
`Clc1ccc(CSc2nc(-c3ccncc3)n[nH]2)cc1` yielded an inhibition at 10 µM against CYP3A4 of 97%. For the same molecule, in data set [1], the concentration for half-maximal inhibition (IC50) was determined as 1.9 µM.
In the same order, the values of `O=C(NCc1ccccc1)c1cccc(NCc2[nH]nc(-c3ccncc3)c2-c2ccccc2)c1` are 87% and 0.17 µM.
Take `O=C(CNc1ccccc1)N/N=C1\CCCc2cnccc21`: the IC50 in data set [1] is 1.8 µM.
In turn, `Clc1ccc(SCc2nc(-c3ccncc3)n[nH]2)cc1` showed an inhibition at 10 µM at CYP3A4 of 100%. Further, the concentration for half-maximal inhibition (IC50) in data set [1] was 0.59 µM.
With `O=C(Cc1cccc(NCc2nc(-c3ccncc3)n[nH]2)c1)NCc1ccccc1`, the inhibition at 10 µM on CYP3A4 was 92%. For the same molecule, the results for the IC50 in data set [1] and in data set [2] were 0.48 µM and > 10 µM, respectively.
As to `NS(=O)(=O)c1ccc(NCc2nc(-c3ccncc3)n[nH]2)cc1`, testing at 10 µM against CYP3A4 gave an inhibition of 20%. In addition, the values for the IC50 in data set [1] and in data set [2] were 0.36 µM and > 10 µM, respectively.
In the case of `COc1ccc(NCC(=O)N/N=C/c2ccncc2)cc1`, in data set [1], the IC50 stood at 3.7 µM.
As to `O=C(Nc1nc(-c2ccncc2)n[nH]1)c1ccc(Cl)cc1`, the inhibition at 10 µM against CYP3A4 was 27%. Also, the IC50 in data set [1] was > 10 µM.
Take `O=C(NCCc1ccccc1)c1cccc(NCc2nc(-c3ccncc3)n[nH]2)c1`: the inhibition at 10 µM against CYP3A4 stood at 95%. The IC50 in data set [1] is 0.047 µM; in data set [2] it was > 10 µM.
`O=C(CNc1ccccc1Cl)N/N=C/c1ccncc1`: in data set [1], the IC50 came out at 2.6 µM.
